Our source for the EC50 values is ChEMBL document CHEMBL1154198, “Chemical genetics of Plasmodium falciparum” (Nature, 2010).

The test system of test [1] is Plasmodium falciparum. Kind of test: ST_JUDE: Plasmodium falciparum 3D7 EC50 (uM) as measured by SYBR green dye. In kind it is functional, organism-based.
In test [2] the test system is Plasmodium falciparum. Kind of test: ST_JUDE: Plasmodium falciparum K1 EC50 (uM) as measured by SYBR green dye. In kind it is functional, organism-based.

Turning to `Cc1nc2ccc(/N=C/c3ccc(N(C)C)cc3)cc2s1`, the EC50 in test [1] and in test [2] was above 15 µM in each case.

Consider `CN(C)CCCNCc1ccc2[nH]c3ccccc3c2c1`, for which the figures for the EC50 in test [1] and in test [2] were 0.35 µM and above 15 µM, respectively.

For `CCOc1ccc(NC2=C/C(=N/S(=O)(=O)c3ccc(OC)cc3)c3ccccc3C2=O)cc1`, the results for the EC50 in test [1] and in test [2] were 0.352 µM and 0.155 µM, respectively.

For `CCN(CC)CCCNc1nc2cc(OC)c(OC)cc2c2nc(-c3ccccc3)nn12`, the EC50 in test [1] and in test [2] was above 15 µM each time.

Take `CN(C)c1ccc(N2C(N)=NC(N)=NC2(C)C)cc1`: the EC50 is 0.0728 µM in test [1] and above 15 µM in test [2].

Turning to `CCC[N+]12CCC(CC1)C(C(=O)c1cccs1)C2` (stereo not given), the EC50 in test [1] and in test [2] was above 15 µM in each case.

`N=C(N/N=C\c1ccc(F)cc1)N/N=C\c1ccc(F)cc1`: the EC50 in test [1] is 0.753 µM; in test [2], 4.74 µM.

For `COc1cccc(CNC(=O)C2c3ccccc3C(=O)N(CC(C)C)C2c2cccs2)c1` (stereo not given), the EC50 in test [1] came out at 5.27 µM; in test [2], 4.13 µM.

As for `COc1ccc(C2N(C)c3ccccc3N2C)cc1`, the EC50 in test [1] and in test [2] was above 15 µM in each case.

For `CN(C(=O)c1cc2c(s1)-c1ccccc1S(=O)(=O)C2)c1cccc(Cl)c1`, the EC50 in test [1] is 0.711 µM; in test [2] it was 1.05 µM.

For the compound `COC(=O)c1ccccc1NC(=O)c1ccc(Cn2cc(Cl)cn2)cc1`, the EC50 in test [1] and in test [2] was above 15 µM each time.

For the compound `O=C(C1CCCCC1)N(Cc1cccnc1)c1nc2ccc(F)cc2s1`, the values for the EC50 in test [1] and in test [2] were above 15 µM and 3.41 µM, respectively.

As to `Cc1ccc2oc(-c3cccc(NC(=O)C(Cl)(Cl)Cl)c3C)nc2c1`, the values for the EC50 in test [1] and in test [2] were above 15 µM and 1.59 µM, respectively.

As to `O=C(NCCc1cccc(C(F)(F)F)c1)Nc1cc(C(F)(F)F)ccc1Cl`, the values for the EC50 in test [1] and in test [2] were 3.09 µM and 2.37 µM, respectively.

For `Cc1cccc2sc(NNC(=O)c3ccc(S(=O)(=O)N(C)C)cc3)nc12`, the results for the EC50 in test [1] and in test [2] were 7.12 µM and 5.83 µM, respectively.

For `CCOc1ccc(Nc2cc(C)nc3c(C)cc(C)cc23)cc1`, the values for the EC50 in test [1] and in test [2] were 3.73 µM and 6.67 µM, respectively.

On to `O=C(CN1CCN(C2CCCC2)CC1)Nc1ccc([N+](=O)[O-])cc1C(=O)Nc1ccccc1F`, for which the EC50 in test [1] and in test [2] was above 15 µM in each case.

As to `COc1ccc(C(O)(CCC(C)C)C(CN2CCOCC2)c2ccccc2)cc1` (stereo not given), the EC50 was found to be 3.67 µM in test [1] and 3.27 µM in test [2].

For `CN(C)CCCNc1c2ccccc2nc2ccccc12`, the figures for the EC50 in test [1] and in test [2] were 0.531 µM and 3.71 µM, respectively.

Consider `Cc1ccc(NC(=O)C2c3ccccc3C(=O)N(CC(C)C)C2c2cccs2)nc1` (stereo not given), for which the EC50 in test [1] was 1.32 µM; in test [2] it was 1.43 µM.

`Oc1c(CN2CCN(Cc3ccc4cccnc4c3O)CC2)ccc2cccnc12`: the values for the EC50 in test [1] and in test [2] were above 15 µM and 6.32 µM, respectively.

In the case of `CC(=O)N(C1=C(N2CCCCC2)C(=O)c2ccccc2C1=O)c1ccc(C)cc1`, the figures for the EC50 in test [1] and in test [2] were 7.46 µM and 4.48 µM, respectively.

In the case of `CCc1ccc(Oc2c(C(F)(F)F)oc3c(CN4CCCCC4)c(O)ccc3c2=O)cc1`, the EC50 was 1.61 µM in test [1] and 0.558 µM in test [2].

Regarding `COc1ccc(OC)c2sc(NNC(=O)c3ccc(S(=O)(=O)N(C)C)cc3)nc12`, the values for the EC50 in test [1] and in test [2] were 6.72 µM and 6.61 µM, respectively.

As for `COc1ccc(C2C(C(=O)Nc3cnc4ccccc4c3)c3ccccc3C(=O)N2C2CCCCC2)cc1` (stereo not given), the EC50 in test [1] was 1.63 µM; in test [2], 3.37 µM.

As for `N=C(N)N/N=C/c1ccncc1`, the results for the EC50 in test [1] and in test [2] were 3.49 µM and above 15 µM, respectively.

As to `COC(=O)c1ccc(Nc2nc(NCc3ccccc3)c3ccccc3n2)cc1`, the figures for the EC50 in test [1] and in test [2] were 1.11 µM and above 15 µM, respectively.

`O=C(Nc1ccc(F)c(F)c1)c1ccc(=O)n(Cc2cccc([N+](=O)[O-])c2)c1`: the EC50 in test [1] and in test [2] was above 15 µM each time.

`CCOC(=O)C1=C(C)N=c2s/c(=C\c3cc(Cl)ccc3O)c(=O)n2C1c1ccc(Cl)cc1` (stereo not given): the EC50 in test [1] and in test [2] was above 15 µM each time.

As for `CCN1CCN(c2cc(C)c3cc(NC(=S)NCCN4CCN(c5cccc(Cl)c5)CC4)ccc3n2)CC1`, the EC50 in test [1] stood at 2.4 µM; in test [2] it was 6.15 µM.

Take `CC(C)OCc1cc(CN2CCN(c3cccc(Cl)c3)CC2)c(O)c2ncccc12`: the EC50 in test [1] is 0.941 µM; in test [2] it was 0.808 µM.

Regarding `Cc1cc(Cl)c(S(=O)(=O)N(C)C)cc1OCC(=O)Nc1ccccc1`, the EC50 in test [1] and in test [2] was above 15 µM in each case.

On to `CCOc1ccccc1N1CCN(Cc2cc(Br)cc(Br)c2O)CC1`, for which the EC50 turned out to be 8.24 µM in test [1] and 3.78 µM in test [2].

Turning to `Cc1ccc(NC(=O)CSc2nncc(O)n2)cc1`, the EC50 in test [1] is 4.88 µM; in test [2], 0.924 µM.

Take `CCCC(=O)NC(Nc1ccc(S(=O)(=O)Nc2cc(C)on2)cc1)(C(=O)OCC)C(F)(F)F` (stereo not given): the results for the EC50 in test [1] and in test [2] were 1.85 µM and 5.22 µM, respectively.

Turning to `CCN(CC)CCN1C(=O)c2oc3ccccc3c(=O)c2C1c1cccc(OC)c1` (stereo not given), the EC50 in test [1] is 0.995 µM; in test [2], 1.05 µM.

For `FC(F)(F)c1cccc(NC(=S)Nc2cccc(Cl)c2)c1`, the EC50 in test [1] came out at 3.79 µM; in test [2], 2.95 µM.

Take `CSCCC(=O)N(C)C(Cc1ccc(F)cc1)C1CCN(C(=O)c2cc3ccccc3n2C)CC1` (stereo not given): the EC50 in test [1] and in test [2] was above 15 µM in each case.

Regarding `CCOc1ccccc1/C=C/C(=O)Nc1ccc2nc(N3CCN(C)CC3)cc(C)c2c1`, the EC50 was 0.437 µM in test [1] and above 15 µM in test [2].

On to `COc1cccc(C2Nc3ccc(C(C)=O)cc3C3C=CCC32)c1OC` (stereo not given), for which the EC50 in test [1] is 3.42 µM; in test [2], 8.22 µM.

With `Cc1ccc2nc(NNC(=O)c3ccc(S(=O)(=O)N(C)C)cc3)sc2c1`, the results for the EC50 in test [1] and in test [2] were 5.03 µM and 5.39 µM, respectively.

With `Fc1ccc(-c2nc3ncccn3c2Nc2cccc(C(F)(F)F)c2)cc1`, the results for the EC50 in test [1] and in test [2] were 0.921 µM and 1.22 µM, respectively.

As for `CCC1CCCCN1S(=O)(=O)c1ccc(C(=O)NNc2nc3c(C)cccc3s2)cc1` (stereo not given), the EC50 in test [1] and in test [2] was above 15 µM throughout.

As for `CCCN1CCN(CCCNC(=O)c2ccc3c(c2)sc2nc(-c4ccc(OC)cc4)cn23)CC1`, the figures for the EC50 in test [1] and in test [2] were 0.839 µM and above 15 µM, respectively.

For the compound `CC(Cc1ccccc1)NC1=NS(=O)(=O)c2cc([N+](=O)[O-])ccc21` (stereo not given), the EC50 was 1.58 µM in test [1] and above 15 µM in test [2].

In the case of `CC(C)(O)C#Cc1ccc([C@@H]2C[C@H]3CN(Cc4cccc(Cl)c4)C(=O)[C@]34CCCN24)cc1`, the EC50 amounted to 4.64 µM in test [1] and 5.79 µM in test [2].

On to `CCN(C(=O)c1cc2cc3ccc(OC)cc3nc2o1)c1ccc(F)cc1`, for which the EC50 in test [1] and in test [2] was above 15 µM throughout.

Regarding `C#CC[n+]1ccn2c(C)ccc2c1C`, the figures for the EC50 in test [1] and in test [2] were 5.58 µM and 1.69 µM, respectively.

For the compound `O=C(Nc1cccc(Br)c1)C1(c2ccccc2)CC1(Cl)Cl` (stereo not given), the EC50 in test [1] came to 4.43 µM; in test [2] it was 3.11 µM.

In the case of `CCOc1ccccc1N(CC(=O)Nc1ccccc1C(C)C)S(=O)(=O)c1ccccc1`, the EC50 in test [1] and in test [2] was above 15 µM each time.

On to `CN(C)S(=O)(=O)c1ccc(C(=O)NNc2nc3ccc(F)cc3s2)cc1`, for which the EC50 in test [1] is 6.05 µM; in test [2] it was 4.27 µM.

As for `CC(C)(C)c1ccc(C(=O)Nc2c3c(nn2-c2cccc(Cl)c2)CSC3)cc1`, the EC50 in test [1] and in test [2] was above 15 µM each time.

For the compound `CC(C)CC(C)N1CCC(n2nccc2NC(=O)Nc2ccccc2Cl)CC1` (stereo not given), the figures for the EC50 in test [1] and in test [2] were 8.23 µM and above 15 µM, respectively.

Regarding `CCOc1ccc(NC(=O)C2c3cc(OC)c(OC)cc3C(=O)N(C)C2c2ccc(OC)cc2)cc1` (stereo not given), the results for the EC50 in test [1] and in test [2] were above 15 µM and 1.07 µM, respectively.

Consider `CCCCNc1ccc2cccc(O)c2n1`, for which the EC50 in test [1] is above 15 µM; in test [2], 4.37 µM.

For `CCc1ccccc1Nc1nc(-c2cccnc2)cs1`, the EC50 in test [1] and in test [2] was above 15 µM throughout.

Take `CCSc1ccc2ccccc2[n+]1CC`: the results for the EC50 in test [1] and in test [2] were 0.416 µM and 0.259 µM, respectively.

With `COc1ccccc1N1CCN(Cc2cc(Cl)c3cccnc3c2O)CC1`, the values for the EC50 in test [1] and in test [2] were 3.34 µM and 2.36 µM, respectively.

For the compound `COc1ccc(Nc2cc(C)nc(N3CCN(C(=O)c4ccccc4C(F)(F)F)CC3)n2)cc1`, the values for the EC50 in test [1] and in test [2] were 3.59 µM and 1.57 µM, respectively.

For the compound `CC(=O)Nc1ccc(NC(=O)CSc2nn3c(=O)c(C)nnc3s2)cc1`, the EC50 in test [1] was above 15 µM; in test [2] it was 4.96 µM.

As to `O=C1c2ccccc2C(=O)c2cc(S(=O)(=O)N(CCO)CCO)ccc21`, the concentration giving a half-maximal response (EC50) in test [1] came out at 5.89 µM; in test [2], 3.21 µM.

`O=C1CC(O)(C(F)(F)C(F)(F)OC(F)(F)F)Oc2ccc(Cl)cc21` (stereo not given): the concentration for a half-maximal effect (EC50) in test [1] and in test [2] was above 15 µM each time.

Regarding `CC(C)(C)CC(C)(C)NCC(O)COc1ccc2c(c1)CCC2` (stereo not given), the EC50 in test [1] turned out to be 4.42 µM; in test [2] it was 1.22 µM.

Regarding `Cc1cc(C)nc(/N=C(\N)Nc2ccc(Cl)cc2C(=O)c2ccccc2)n1`, the figures for the EC50 in test [1] and in test [2] were 3.59 µM and 8.05 µM, respectively.

With `O=C(Nc1cccc(Cl)c1)C1c2ccccc2C(=O)N(C2CCCC2)C1c1cccs1` (stereo not given), the EC50 stood at 0.297 µM in test [1] and 0.326 µM in test [2].

In the case of `O=C(Cc1ccc(Cl)cc1)Nc1ccc(-c2nc3ccccc3[nH]2)cc1`, the EC50 in test [1] and in test [2] was above 15 µM throughout.

Turning to `COc1ccc(CCNC(=S)Nc2ccccc2Cl)cc1OC`, the EC50 in test [1] stood at 1.29 µM; in test [2], 1.36 µM.

For the compound `COc1ccc(N2CCN(C(CNC(=O)c3ccc(C(C)(C)C)cc3)c3ccco3)CC2)cc1` (stereo not given), the EC50 in test [1] is above 15 µM; in test [2] it was 1.51 µM.

For `COc1ccccc1C(=O)N(Cc1cccnc1)c1nc2c(F)cccc2s1`, the EC50 is above 15 µM in test [1] and 9.07 µM in test [2].

In the case of `Cc1cccc(CN2C(=O)/C(=C\c3ccc(C(=O)N4CCC(N5CCCCC5)CC4)cc3)Oc3ccccc32)c1`, the EC50 in test [1] was 4.03 µM; in test [2], above 15 µM.

By EC50 is commonly meant the concentration at which the effect is half-maximal. Lower therefore signals higher potency in that assay.
